The values that follow come from US20230123334A1, “AMINO LIPID COMPOUND, PREPARATION METHOD THEREFOR, AND APPLICATION THEREOF” (SHENZHEN SHENXIN BIOTECHNOLOGY CO., LTD., priority 2020, published 2023).

In this test the test system is HEK293 cells. Description: Preliminary screening as mRNA vectors, EGFP mRNA transfection of HEK293 cells. The conditions noted are these: EGFP mRNA 50 ng per well, 96-well plates; percentage of GFP fluorescent cells relative to total number of cells (Hoechst). It is filed as cell-based. The procedure: Cell line: HEK293 cells (ATCC CRL-1573™)
Medium: DMEM supplemented with 10% fetal bovine serum (Invitrogen)
Screening: cell transfection on 96-well plates
Detection (readout): percentage of the number of GFP fluorescent cells relative to the total number of cells (the total number of cells was determined using nucleus dye Hoechst). Lipofectamine2000 (Invitrogen) was used as the positive control.
Method: the experimental method was basically the same with Example 4, and the mass of EGFP mRNA (TriLink) for transfection was 50 ng per well.
With `CCCCCCCCCSc1nc(NCCN(C)C)nc(SCCCCCC)n1` [Compound D1S6S9], the “Absolute mRNA transfection efficiency in HEK293 cells” value (from here on “Absolute mRNA transfection efficiency”) stood at 2.3%.

`CCCCCCCCCCSc1nc(NCCN(C)C)nc(SCCCCCC)n1` [Compound D1S6S10]: the “Absolute mRNA transfection efficiency” value came to 0.7%. With `CCCCCCCCCCCSc1nc(NCCN(C)C)nc(SCCCCCC)n1` [Compound D1S6S11], the “Absolute mRNA transfection efficiency” value was 0.4%. In the case of `CCCCCCCCCCCCSc1nc(NCCN(C)C)nc(SCCCCCC)n1` [Compound D1S6S12] it was 0.6%.

For `CCCCCCCCCCCCCCSc1nc(NCCN(C)C)nc(SCCCCCC)n1` [Compound D1S6S14], the “Absolute mRNA transfection efficiency” value was 0.8%. Turning to `CCCCCCCCCCCCCCCSc1nc(NCCN(C)C)nc(SCCCCCC)n1` [Compound D1S6S15], the “Absolute mRNA transfection efficiency” value turned out to be 1.2%. With `CCCCCCCCCCCCCCCCSc1nc(NCCN(C)C)nc(SCCCCCC)n1` [Compound D1S6S16], the “Absolute mRNA transfection efficiency” value is given as 0.9%. The result for `CCCCCCCCCCCCCCCCCCSc1nc(NCCN(C)C)nc(SCCCCCC)n1` [Compound D1S6S18] reads 15.9%.

With `CCCCCCCSc1nc(NCCCCCC)nc(NCCN(C)C)n1` [Compound D1S7N6], the “Absolute mRNA transfection efficiency” value is 5.1%. The result for `CCCCCCCNc1nc(NCCN(C)C)nc(SCCCCCCC)n1` [Compound D1S7N7] reads 4.4%. In the case of `CCCCCCCCNc1nc(NCCN(C)C)nc(SCCCCCCC)n1` [Compound D1S7N8] it was 2.0%; in that of `CCCCCCCCCNc1nc(NCCN(C)C)nc(SCCCCCCC)n1` [Compound D1S7N9], 10.0%; in that of `CCCCCCCCCCCNc1nc(NCCN(C)C)nc(SCCCCCCC)n1` [Compound D1S7N11], 5.8%.

For `CCCCCCCCCCCCNc1nc(NCCN(C)C)nc(SCCCCCCC)n1` [Compound D1S7N12], the “Absolute mRNA transfection efficiency” value was found to be 5.4%. The result for `CCCCCCCCCCCCCNc1nc(NCCN(C)C)nc(SCCCCCCC)n1` [Compound D1S7N13] reads 12.8%. In the case of `CCCCCCCCCCCCCCCNc1nc(NCCN(C)C)nc(SCCCCCCC)n1` [Compound D1S7N15] it was 21.3%.

As to `CCCCCCCCCCCCCCCCNc1nc(NCCN(C)C)nc(SCCCCCCC)n1` [Compound D1S7N16], the “Absolute mRNA transfection efficiency” value was 29.5%. In the case of `CCCCCCCCCCCCCCCCCCNc1nc(NCCN(C)C)nc(SCCCCCCC)n1` [Compound D1S7N18] it was 35.7%; in that of `CCCCCCCSc1nc(NCCN(C)C)nc(SCCCCCCC)n1` [Compound D1S7S7], 14.9%. The result for `CCCCCCCCSc1nc(NCCN(C)C)nc(SCCCCCCC)n1` [Compound D1S7S8] reads 16.7%; that for `CCCCCCCCCSc1nc(NCCN(C)C)nc(SCCCCCCC)n1` [Compound D1S7S9], 8.1%; that for `CCCCCCCCCCSc1nc(NCCN(C)C)nc(SCCCCCCC)n1` [Compound D1S7S10], 5.6%. For the compound `CCCCCCCCCCCSc1nc(NCCN(C)C)nc(SCCCCCCC)n1` [Compound D1S7S11], the “Absolute mRNA transfection efficiency” value was 4.1%.

As for `CCCCCCCCCCCCSc1nc(NCCN(C)C)nc(SCCCCCCC)n1` [Compound D1S7S12], the “Absolute mRNA transfection efficiency” value stood at 3.1%. In the case of `CCCCCCCCCCCCCCSc1nc(NCCN(C)C)nc(SCCCCCCC)n1` [Compound D1S7S14] it was 3.1%. Take `CCCCCCCCCCCCCCCSc1nc(NCCN(C)C)nc(SCCCCCCC)n1` [Compound D1S7S15]: the “Absolute mRNA transfection efficiency” value is 3.9%. `CCCCCCCCCCCCCCCCSc1nc(NCCN(C)C)nc(SCCCCCCC)n1` [Compound D1S7S16]: the “Absolute mRNA transfection efficiency” value is given as 6.9%. In the case of `CCCCCCCCCCCCCCCCCCSc1nc(NCCN(C)C)nc(SCCCCCCC)n1` [Compound D1S7S18] it was 4.1%. The result for `CCCCCCCCSc1nc(NCCCCCC)nc(NCCN(C)C)n1` [Compound D1S8N6] reads 2.4%; that for `CCCCCCCCSc1nc(NCCCCCCC)nc(NCCN(C)C)n1` [Compound D1S8N7], 2.0%. Turning to `CCCCCCCCNc1nc(NCCN(C)C)nc(SCCCCCCCC)n1` [Compound D1S8N8], the “Absolute mRNA transfection efficiency” value is 5.8%.

For `CCCCCCCCCNc1nc(NCCN(C)C)nc(SCCCCCCCC)n1` [Compound D1S8N9], the “Absolute mRNA transfection efficiency” value is 21.4%. On to `CCCCCCCCCCCNc1nc(NCCN(C)C)nc(SCCCCCCCC)n1` [Compound D1S8N11], for which the “Absolute mRNA transfection efficiency” value is 9.0%. Take `CCCCCCCCCCCCNc1nc(NCCN(C)C)nc(SCCCCCCCC)n1` [Compound D1S8N12]: the “Absolute mRNA transfection efficiency” value came to 17.9%.

As to `CCCCCCCCCCCCCNc1nc(NCCN(C)C)nc(SCCCCCCCC)n1` [Compound D1S8N13], the “Absolute mRNA transfection efficiency” value is 15.5%. The result for `CCCCCCCCCCCCCCCNc1nc(NCCN(C)C)nc(SCCCCCCCC)n1` [Compound D1S8N15] reads 23.8%.

Turning to `CCCCCCCCCCCCCCCCNc1nc(NCCN(C)C)nc(SCCCCCCCC)n1` [Compound D1S8N16], the “Absolute mRNA transfection efficiency” value is listed as 22.5%.

Turning to `CCCCCCCCCCCCCCCCCCNc1nc(NCCN(C)C)nc(SCCCCCCCC)n1` [Compound D1S8N18], the “Absolute mRNA transfection efficiency” value is given as 19.3%. Take `CCCCCCCCSc1nc(NCCN(C)C)nc(SCCCCCCCC)n1` [Compound D1S8S8]: the “Absolute mRNA transfection efficiency” value turned out to be 11.7%.

`CCCCCCCCCSc1nc(NCCN(C)C)nc(SCCCCCCCC)n1` [Compound D1S8S9]: the “Absolute mRNA transfection efficiency” value is recorded as 7.4%.

`CCCCCCCCCCSc1nc(NCCN(C)C)nc(SCCCCCCCC)n1` [Compound D1S8S10]: the “Absolute mRNA transfection efficiency” value turned out to be 8.6%. The result for `CCCCCCCCCCCSc1nc(NCCN(C)C)nc(SCCCCCCCC)n1` [Compound D1S8S11] reads 3.0%. The result for `CCCCCCCCCCCCSc1nc(NCCN(C)C)nc(SCCCCCCCC)n1` [Compound D1S8S12] reads 1.4%; that for `CCCCCCCCCSc1nc(NCCCCCC)nc(NCCN(C)C)n1` [Compound D1S9N6], 1.1%; that for `CCCCCCCCCSc1nc(NCCCCCCC)nc(NCCN(C)C)n1` [Compound D1S9N7], 0.3%. The result for `CCCCCCCCCSc1nc(NCCCCCCCC)nc(NCCN(C)C)n1` [Compound D1S9N8] reads 2.9%. Consider `CCCCCCCCCNc1nc(NCCN(C)C)nc(SCCCCCCCCC)n1` [Compound D1S9N9], for which the “Absolute mRNA transfection efficiency” value worked out at 8.0%. As to `CCCCCCCCCCCNc1nc(NCCN(C)C)nc(SCCCCCCCCC)n1` [Compound D1S9N11], the “Absolute mRNA transfection efficiency” value was determined as 53.0%.

Consider `CCCCCCCCCCCCNc1nc(NCCN(C)C)nc(SCCCCCCCCC)n1` [Compound D1S9N12], for which the “Absolute mRNA transfection efficiency” value was 30.2%. The result for `CCCCCCCCCCCCCNc1nc(NCCN(C)C)nc(SCCCCCCCCC)n1` [Compound D1S9N13] reads 25.8%.

Consider `CCCCCCCCCCCCCCCNc1nc(NCCN(C)C)nc(SCCCCCCCCC)n1` [Compound D1S9N15], for which the “Absolute mRNA transfection efficiency” value turned out to be 27.4%. The result for `CCCCCCCCCCCCCCCCNc1nc(NCCN(C)C)nc(SCCCCCCCCC)n1` [Compound D1S9N16] reads 25.6%; that for `CCCCCCCCCCCCCCCCCCNc1nc(NCCN(C)C)nc(SCCCCCCCCC)n1` [Compound D1S9N18], 47.6%; that for `CCCCCCCCCCSc1nc(NCCCCCC)nc(NCCN(C)C)n1` [Compound D1S10N6], 0.4%. Turning to `CCCCCCCCCCSc1nc(NCCCCCCC)nc(NCCN(C)C)n1` [Compound D1S10N7], the “Absolute mRNA transfection efficiency” value amounted to 0.2%. In the case of `CCCCCCCCCCSc1nc(NCCCCCCCC)nc(NCCN(C)C)n1` [Compound D1S10N8] it was 0.5%; in that of `CCCCCCCCCCSc1nc(NCCCCCCCCC)nc(NCCN(C)C)n1` [Compound D1S10N9], 0.5%; in that of `CCCCCCCCCCCNc1nc(NCCN(C)C)nc(SCCCCCCCCCC)n1` [Compound D1S10N11], 6.2%. The result for `CCCCCCCCCCCCNc1nc(NCCN(C)C)nc(SCCCCCCCCCC)n1` [Compound D1S10N12] reads 2.4%; that for `CCCCCCCCCCCCCNc1nc(NCCN(C)C)nc(SCCCCCCCCCC)n1` [Compound D1S10N13], 1.7%; that for `CCCCCCCCCCCCCCCNc1nc(NCCN(C)C)nc(SCCCCCCCCCC)n1` [Compound D1S10N15], 2.8%. The result for `CCCCCCCCCCCCCCCCNc1nc(NCCN(C)C)nc(SCCCCCCCCCC)n1` [Compound D1S10N16] reads 40.7%; that for `CCCCCCCCCCCCCCCCCCNc1nc(NCCN(C)C)nc(SCCCCCCCCCC)n1` [Compound D1S10N18], 4.8%. Regarding `CCCCCCCCCCCSc1nc(NCCCCCC)nc(NCCN(C)C)n1` [Compound D1S11N6], the “Absolute mRNA transfection efficiency” value was 4.4%.

For `CCCCCCCCCCCSc1nc(NCCCCCCC)nc(NCCN(C)C)n1` [Compound D1S11N7], the “Absolute mRNA transfection efficiency” value came to 11.7%.
